Data from PubChem BioAssay (NCI).
In brackets after ≈: the same amount, converted by molar mass. Several values for one entry are separate records, joined by “and”; a condition that tells them apart may be missing. Equal values may be shown once.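 Test compounds were applied to cells in 96-well plates for 48 hours at 5 doses. GI50 is the concentration that inhibits growth by half. TGI: concentration producing complete growth inhibition.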

What was measured:
Assay in all cases: NCI tumour cell line growth inhibition, 48 h
SNB-78 CNS = system: SNB-78 CNS
NCI-H23 lung = system: NCI-H23 lung
NCI-H460 lung = system: NCI-H460 lung
SR leukemia = system: SR leukemia
XF 498 CNS = system: XF 498 CNS
A549 NSCLC = system: A549 NSCLC
A498 renal = system: A498 renal
DU-145 prostate = system: DU-145 prostate
MDA-MB-435 = system: MDA-MB-435
CAKI-1 renal = system: CAKI-1 renal
NCI/ADR-RES ovarian = system: NCI/ADR-RES ovarian
SF-268 CNS = system: SF-268 CNS
UACC-257 melanoma = system: UACC-257 melanoma
TK-10 renal = system: TK-10 renal
RPMI-8226 leukemia = system: RPMI-8226 leukemia
DMS 114 small cell lung = system: DMS 114 small cell lung
BT-549 breast = system: BT-549 breast
SF-539 CNS = system: SF-539 CNS
OVCAR-5 ovarian = system: OVCAR-5 ovarian
M14 melanoma = system: M14 melanoma
HL-60(TB) leukemia = system: HL-60(TB) leukemia
LOX IMVI melanoma = system: LOX IMVI melanoma
IGROV1 ovarian = system: IGROV1 ovarian
HS 578T breast = system: HS 578T breast
NCI-H226 lung = system: NCI-H226 lung
SNB-19 CNS = system: SNB-19 CNS
SK-OV-3 ovarian = system: SK-OV-3 ovarian
SN12C renal = system: SN12C renal
SW-620 colon = system: SW-620 colon
MOLT-4 leukemia = system: MOLT-4 leukemia
SNB-75 CNS = system: SNB-75 CNS
MALME-3M melanoma = system: MALME-3M melanoma
UO-31 renal = system: UO-31 renal

With CC(C)c1cccc(O)c(=O)c1 the TGI (SNB-78 CNS) was over 100 µM, the GI50 (NCI-H23 lung) was 35 µg/mL (≈ 213 µM) and the TGI (NCI-H23 lung) was > 75 µg/mL and > 78.8 µM. The GI50 (NCI-H460 lung) was 0.31 µg/mL (≈ 1.89 µM), the GI50 (SR leukemia) was 0.496 µg/mL (≈ 3.02 µM) and the TGI (XF 498 CNS) was over 100 µM. For the same molecule, the GI50 (A549 NSCLC) was 2.42 µg/mL (≈ 14.8 µM), the TGI (A549 NSCLC) was > 75 µg/mL and > 74.5 µM and the TGI (A498 renal) was over 100 µM. For the same molecule, the GI50 (DU-145 prostate) was 2.1 µg/mL (≈ 12.8 µM), the TGI (DU-145 prostate) was 24.7 µg/mL (≈ 150 µM) and the GI50 (MDA-MB-435) was 2.14 µg/mL (≈ 13 µM). For the same molecule, the TGI (MDA-MB-435) was 39 µg/mL (≈ 238 µM), the GI50 (CAKI-1 renal) was 2.97 µg/mL (≈ 18.1 µM) and the GI50 (NCI/ADR-RES ovarian) was 4.5 µg/mL (≈ 27.4 µM). The TGI (NCI/ADR-RES ovarian) was over 75 µg/mL, the GI50 (SF-268 CNS) was 1.55 µg/mL (≈ 9.46 µM) and the TGI (SF-268 CNS) was 23.6 µg/mL and > 61.6 µM. For the same molecule, the GI50 (UACC-257 melanoma) was 2.33 µg/mL (≈ 14.2 µM), the TGI (UACC-257 melanoma) was 23 µg/mL and 46.6 µM and the GI50 (TK-10 renal) was 17.3 µg/mL (≈ 105 µM). The TGI (TK-10 renal) was > 75 µg/mL and > 100 µM, the GI50 (RPMI-8226 leukemia) was 0.826 µg/mL (≈ 5.03 µM) and the TGI (DMS 114 small cell lung) was 16 µM. It also gave a GI50 (BT-549 breast) of 3.57 µg/mL (≈ 21.8 µM), a TGI (BT-549 breast) of 42.4 µg/mL (≈ 258 µM) and a GI50 (SF-539 CNS) of 4.51 µg/mL (≈ 27.5 µM). For the same molecule, the GI50 (OVCAR-5 ovarian) was 75 µg/mL (≈ 457 µM), the TGI (OVCAR-5 ovarian) was > 75 µg/mL and > 100 µM and the GI50 (M14 melanoma) was 75 µg/mL (≈ 457 µM). For the same molecule, the TGI (M14 melanoma) was > 75 µg/mL and > 57.5 µM, the GI50 (HL-60(TB) leukemia) was 1.25 µg/mL (≈ 7.64 µM) and the GI50 (LOX IMVI melanoma) was 1.94 µg/mL (≈ 11.8 µM). For the same molecule, the TGI (LOX IMVI melanoma) was > 75 µg/mL and > 100 µM, the GI50 (IGROV1 ovarian) was 1.6 µg/mL (≈ 9.74 µM) and the TGI (IGROV1 ovarian) was > 75 µg/mL and > 100 µM. For the same molecule, the GI50 (HS 578T breast) was 1.98 µg/mL (≈ 12 µM), the TGI (HS 578T breast) was 38.6 µg/mL (≈ 235 µM) and the TGI (NCI-H226 lung) was 50.1 µM. It also gave a GI50 (SNB-19 CNS) of 1.2 µg/mL (≈ 7.3 µM), a TGI (SK-OV-3 ovarian) of over 100 µM and a GI50 (SN12C renal) of 4.26 µg/mL (≈ 26 µM). The TGI (SN12C renal) was > 75 µg/mL and > 100 µM, the GI50 (SW-620 colon) was 3.56 µg/mL (≈ 21.7 µM) and the TGI (SW-620 colon) was > 75 µg/mL and > 100 µM. For the same molecule, the TGI (MOLT-4 leukemia) was over 46.9 µM, the TGI (SNB-75 CNS) was over 92.6 µM and the GI50 (MALME-3M melanoma) was 9.77 µg/mL (≈ 59.5 µM). For the same molecule, the TGI (MALME-3M melanoma) was 48.3 µg/mL and > 81.2 µM and the GI50 (UO-31 renal) was 2.58 µg/mL (≈ 15.7 µM).
